Measurements taken from the supplement of paper PMC11451515.

System: P12-Ichikawa
Experiment: cell viability relative to DMSO control; higher = less cytotoxic
Conditions: 48 h
How it was run: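 NOMO1, SEM and P12-Ichikawa leukemia cells spent at least four passages adapting to each medium before use. They were seeded at 500 cells/well (NOMO1, SEM) or 1000 cells/well (P12-Ichikawa) in 5 μl in 1536-well plates and pin-dosed with library compounds in DMSO at 11 threefold steps from 47 μM down to 0.79 nM. After 48 h at 37°C, CellTiter-Glo One luminescence was read. Viability is reported as a percentage of the DMSO wells on each plate, with cell-free wells as background.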

[1] = HPLM + 10% dialyzed FBS, 0.000781 µM
[2] = HPLM + 10% dialyzed FBS, 0.00234 µM
[3] = HPLM + 10% dialyzed FBS, 0.00702 µM
[4] = HPLM + 10% dialyzed FBS, 0.0211 µM
[5] = HPLM + 10% dialyzed FBS, 0.0632 µM
[6] = HPLM + 10% dialyzed FBS, 0.19 µM
[7] = HPLM + 10% dialyzed FBS, 0.569 µM
[8] = HPLM + 10% dialyzed FBS, 1.71 µM
[9] = HPLM + 10% dialyzed FBS, 5.12 µM
[10] = HPLM + 10% dialyzed FBS, 15.4 µM
[11] = HPLM + 10% dialyzed FBS, 46.1 µM
[12] = RPMI 5 mM glucose + 10% dialyzed FBS, 0.000781 µM
[13] = RPMI 5 mM glucose + 10% dialyzed FBS, 0.00234 µM
[14] = RPMI 5 mM glucose + 10% dialyzed FBS, 0.00702 µM
[15] = RPMI 5 mM glucose + 10% dialyzed FBS, 0.0211 µM
[16] = RPMI 5 mM glucose + 10% dialyzed FBS, 0.0632 µM
[17] = RPMI 5 mM glucose + 10% dialyzed FBS, 0.19 µM
[18] = RPMI 5 mM glucose + 10% dialyzed FBS, 0.569 µM
[19] = RPMI 5 mM glucose + 10% dialyzed FBS, 1.71 µM
[20] = RPMI 5 mM glucose + 10% dialyzed FBS, 5.12 µM
[21] = RPMI 5 mM glucose + 10% dialyzed FBS, 15.4 µM
[22] = RPMI 5 mM glucose + 10% dialyzed FBS, 46.1 µM
[23] = RPMI 5 mM glucose + 10% FBS, 0.000781 µM
[24] = RPMI 5 mM glucose + 10% FBS, 0.00234 µM
[25] = RPMI 5 mM glucose + 10% FBS, 0.00702 µM
[26] = RPMI 5 mM glucose + 10% FBS, 0.0211 µM
[27] = RPMI 5 mM glucose + 10% FBS, 0.0632 µM
[28] = RPMI 5 mM glucose + 10% FBS, 0.19 µM
[29] = RPMI 5 mM glucose + 10% FBS, 0.569 µM
[30] = RPMI 5 mM glucose + 10% FBS, 1.71 µM
[31] = RPMI 5 mM glucose + 10% FBS, 5.12 µM
[32] = RPMI 5 mM glucose + 10% FBS, 15.4 µM
[33] = RPMI 5 mM glucose + 10% FBS, 46.1 µM

| SMILES | cell viability [1] [%] | cell viability [2] [%] | cell viability [3] [%] | cell viability [4] [%] | cell viability [5] [%] | cell viability [6] [%] | cell viability [7] [%] | cell viability [8] [%] | cell viability [9] [%] | cell viability [10] [%] | cell viability [11] [%] | cell viability [12] [%] | cell viability [13] [%] | cell viability [14] [%] | cell viability [15] [%] | cell viability [16] [%] | cell viability [17] [%] | cell viability [18] [%] | cell viability [19] [%] | cell viability [20] [%] | cell viability [21] [%] | cell viability [22] [%] | cell viability [23] [%] | cell viability [24] [%] | cell viability [25] [%] | cell viability [26] [%] | cell viability [27] [%] | cell viability [28] [%] | cell viability [29] [%] | cell viability [30] [%] | cell viability [31] [%] | cell viability [32] [%] | cell viability [33] [%] |
| --- | --- | --- | --- | --- | --- | --- | --- | --- | --- | --- | --- | --- | --- | --- | --- | --- | --- | --- | --- | --- | --- | --- | --- | --- | --- | --- | --- | --- | --- | --- | --- | --- | --- |
| C=C[C@H]1CN2CCC1C[C@@H]2C(O)c1ccnc2ccc(OC)cc12 (stereo partly specified) | 112 | 131 | 117 | 119 | 127 | 122 | 123 | 133 | 123 | 122 | 103 | 125 | 121 | 120 | 128 | 145 | 128 | 136 | 133 | 123 | 135 | 124 | – | – | – | – | – | – | – | – | – | – | – |
| COC(=O)C\1=C(C)\N\C(=C(/C1C2=CC=CC3=NON=C23)C(=O)OC(C)C)C (stereo unspecified) | 100 | 102 | 99.4 | 95 | 102 | 93.8 | 96.9 | 96.1 | 88 | 90.2 | 87.7 | 97.6 | 94.6 | 88.5 | 95.2 | 101 | 90.4 | 88.7 | 87.2 | 93.4 | 86.6 | 86.1 | 96.1 | 101 | 100 | 94.8 | 104 | 98.8 | 93.1 | 94.2 | 87 | 86.9 | 87.4 |
| C[C@@H](CN1CC(=O)NC(=O)C1)N1CC(=O)NC(=O)C1 | 104 | 111 | 110 | 109 | 108 | 75 | 47 | 11.5 | 13.7 | 4.45 | 2.49 | 94.6 | 108 | 96.8 | 110 | 105 | 84 | 61.3 | 19.7 | 20 | 6.43 | 4.62 | 101 | 104 | 98.5 | 116 | 111 | 97.7 | 80.7 | 18.1 | 18.9 | 5.1 | 4.44 |
| Nc1ccc([S+](=O)([O-])Nc2ccnn2-c2ccccc2)cc1 | 105 | 103 | 103 | 109 | 111 | 102 | 105 | 106 | 105 | 110 | 107 | 86.1 | 98.7 | 97.7 | 92.9 | 105 | 99 | 98.2 | 112 | 103 | 106 | 96.7 | 95.9 | 101 | 98.3 | 96 | 108 | 115 | 108 | 106 | 100 | 109 | 107 |
| CNC(=O)c1ccc(Nc2cc(Nc3ccccc3[S+](=O)([O-])C(C)C)c3cc[nH]c3n2)nc1 | 98.8 | 104 | 107 | 100 | 110 | 111 | 113 | 89.8 | 12.5 | 10.6 | 22.3 | 109 | 105 | 111 | 105 | 116 | 118 | 107 | 83.5 | 26.7 | 28.2 | 29.6 | 108 | 108 | 105 | 115 | 105 | 113 | 98.1 | 66.7 | 14.7 | 12.6 | 19.2 |
| C[C@]12CC[C@H]3[C@@H](CCC4=CC(=O)CC[C@@H]43)[C@@H]1CC[C@@H]2OC(=O)CCc1ccccc1 | 116 | 115 | 117 | 115 | 113 | 121 | 120 | 120 | 121 | 119 | 117 | 104 | 113 | 112 | 106 | 115 | 119 | 113 | 123 | 112 | 114 | 104 | – | – | – | – | – | – | – | – | – | – | – |
| CC12CC3CC(C)(C1)CC(N)(C3)C2 | 122 | 119 | 115 | 115 | 129 | 130 | 124 | 122 | 117 | 89.8 | 58.9 | 110 | 115 | 116 | 117 | 129 | 117 | 125 | 127 | 115 | 109 | 89.7 | 109 | 118 | 117 | 120 | 138 | 122 | 131 | 130 | 123 | 112 | 78.4 |
| CC(=O)Oc1ccccc1C(=O)Nc1ncc([N+](=O)[O-])s1 | 102 | 103 | 106 | 107 | 104 | 104 | 110 | 109 | 95.9 | 97.3 | 36.5 | 95.7 | 97.5 | 100 | 95.6 | 94.2 | 95.4 | 96.3 | 93.5 | 82 | 85.2 | 79.9 | 92.8 | 102 | 95.5 | 98.3 | 96 | 104 | 98.5 | 98.4 | 79.9 | 83.5 | 75.6 |
| O=P(O)(O)C(O)(Cn1ccnc1)P(=O)(O)O | 97.2 | 111 | 64 | 114 | 111 | 122 | 121 | 119 | 125 | 112 | 117 | 101 | 108 | 67.8 | 111 | 114 | 120 | 116 | 114 | 112 | 122 | 118 | 109 | 122 | 70.9 | 126 | 131 | 134 | 136 | 137 | 137 | 136 | 125 |
| CN(C)CC(C)(C)CNc1nn2c(-c3ccccc3)nnc2cc1C1CCC1 | 106 | 103 | 110 | 111 | 112 | 110 | 94.9 | 111 | 84.2 | 33.9 | 6.88 | 105 | 111 | 107 | 111 | 113 | 115 | 98.3 | 113 | 88.1 | 76.9 | 13.6 | 108 | 111 | 104 | 102 | 109 | 106 | 87.8 | 105 | 70.3 | 46.7 | 6.32 |
| N[C@@H]1CONC1=O | 97.7 | 108 | 101 | 105 | 109 | 106 | 109 | 112 | 114 | 100 | 110 | 92.6 | 95.9 | 101 | 101 | 105 | 106 | 98.7 | 102 | 96.5 | 101 | 103 | 95.6 | 95.6 | 106 | 102 | 111 | 102 | 104 | 95.5 | 102 | 97.2 | 103 |
| Cc1cccc(Nc2ccncc2[S+](=O)([O-])NC(=O)NC(C)C)c1 | 102 | 97.6 | 100 | 93.8 | 101 | 96.7 | 93 | 90 | 91.3 | 85.8 | 83.1 | 86.1 | 89.3 | 93.1 | 90 | 91.9 | 97.2 | 90 | 87.3 | 88 | 85.5 | 76.1 | 94.9 | 95.5 | 95.4 | 94.2 | 104 | 104 | 98.2 | 94.1 | 96.8 | 86.4 | 86.6 |
| CCCCN(CCCC)CC(O)c1cc(Cl)cc2c1-c1ccc(Cl)cc1/C2=C/c1ccc(Cl)cc1 (stereo unspecified) | 97.6 | 99.8 | 114 | 107 | 107 | 111 | 109 | 117 | 104 | 121 | 117 | 83.9 | 99.7 | 101 | 107 | 96.9 | 98.1 | 97.5 | 103 | 104 | 107 | 107 | 98.6 | 102 | 107 | 98 | 102 | 117 | 104 | 113 | 97.5 | 109 | 82.5 |
| CNc1nc(Nc2cnn([C@H]3CCN(C4COC4)C[C@@H]3F)c2Cl)ncc1C(F)(F)F | 91 | 100 | 108 | 108 | 102 | 92.9 | 98.5 | 53.3 | 24.9 | 30 | 28 | 100 | 103 | 110 | 120 | 115 | 111 | 114 | 93.1 | 54.3 | 34.8 | 38.1 | 93.9 | 106 | 99.6 | 106 | 115 | 112 | 115 | 99.1 | 54 | 22.2 | 39.2 |
| CC1=CC(=CC(=C1C\C2=N\CCN2)C)C(C)(C)C | 102 | 105 | 105 | 106 | 105 | 124 | 107 | 116 | 106 | 104 | 102 | 91 | 96.4 | 98.1 | 100 | 105 | 92.9 | 103 | 102 | 97.9 | 91.4 | 84.1 | 99.5 | 105 | 105 | 114 | 118 | 113 | 111 | 114 | 99.3 | 86.4 | 90.2 |
| CCCNC(=O)Nc1ccc(Oc2ncnc3cc(OC)c(OC)cc23)cc1Cl | 88.2 | 97.6 | 93.4 | 99.9 | 98.7 | 97.3 | 89 | 76.1 | 88.1 | 95.6 | 84.2 | 98.7 | 99.5 | 94.8 | 99.7 | 92 | 91.1 | 91.4 | 93.5 | 86.8 | 86.5 | 75.7 | 93.9 | 97.3 | 97.2 | 99.8 | 94.7 | 96.3 | 87.6 | 82.8 | 85.2 | 81.3 | 80.4 |
